# From US11370769B2, “TRPC5 inhibitors and methods of using same” (BOARD OF REGENTS OF THE UNIVERSITY OF NEBRASKA, priority 2017, dated 2022)
# Tests used:
# TRPC4 = molecular target: T1, TRPC4 (Homo sapiens, UniProt Q9UBN4); assay: HEK293 whole-cell patch clamp recording, TRPC4 inhibition assay; format: cell-based; details: 30 μM, HEK cells expressing TRPC4, CCh 100 μM
# T1 construct: expressed in transfected cells; host or cells: HEK293
# T1 sequence (Q9UBN4 1-977): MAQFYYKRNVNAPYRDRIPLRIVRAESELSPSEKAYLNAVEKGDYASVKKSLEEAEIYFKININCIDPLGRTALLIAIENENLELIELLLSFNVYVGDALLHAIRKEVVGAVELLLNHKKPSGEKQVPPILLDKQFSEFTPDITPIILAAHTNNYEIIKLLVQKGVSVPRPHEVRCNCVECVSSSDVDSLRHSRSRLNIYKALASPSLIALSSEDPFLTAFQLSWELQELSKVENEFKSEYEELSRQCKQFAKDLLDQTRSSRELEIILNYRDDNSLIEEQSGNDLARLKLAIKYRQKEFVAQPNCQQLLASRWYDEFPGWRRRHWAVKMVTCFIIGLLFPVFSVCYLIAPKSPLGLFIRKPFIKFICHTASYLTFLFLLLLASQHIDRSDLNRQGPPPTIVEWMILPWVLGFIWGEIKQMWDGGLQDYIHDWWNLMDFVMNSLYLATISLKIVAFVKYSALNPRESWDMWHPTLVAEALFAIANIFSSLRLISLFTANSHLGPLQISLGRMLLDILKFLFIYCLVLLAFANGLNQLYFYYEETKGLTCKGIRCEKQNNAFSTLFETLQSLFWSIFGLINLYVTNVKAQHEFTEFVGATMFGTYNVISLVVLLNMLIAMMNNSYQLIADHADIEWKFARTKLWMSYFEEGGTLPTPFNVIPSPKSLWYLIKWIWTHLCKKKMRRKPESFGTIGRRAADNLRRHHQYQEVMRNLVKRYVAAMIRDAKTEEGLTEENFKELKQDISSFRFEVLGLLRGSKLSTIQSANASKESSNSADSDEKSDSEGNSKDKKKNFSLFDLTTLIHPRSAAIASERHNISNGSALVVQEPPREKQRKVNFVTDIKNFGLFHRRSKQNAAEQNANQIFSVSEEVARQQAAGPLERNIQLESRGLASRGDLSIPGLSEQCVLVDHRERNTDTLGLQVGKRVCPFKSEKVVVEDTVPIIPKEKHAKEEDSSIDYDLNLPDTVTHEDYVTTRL
# Description: (§1) TRPC4, TRPC5, and TRPC6 inhibition assay: HEK293 whole-cell recordings Whole-cell patch clamp recording was performed 16 h after transfection. The bath solution contained (in mM): 140 NaCl, 5 KCl, 10 HEPES, 2 MgCl2, 2 CaCl2, 10 glucose with pH7.4 adjusted with NaOH. The intracellular solution contained (in mM): 140 KCl, 5 EGTA, 10 HEPES, 2 MgCl2 with pH7.4 adjusted with KOH. The patch pipettes were made using a two-step-protocol (P-97, Sutter Instrument). The pipette resistance was maintained between 4 to 8 MΩ. Once the whole-cell configuration was achieved, cells were clamped at a holding potential of −60 mV, and given a 50 ms ramp stimulation from −100 mV to +100 mV in every 5 s. All currents were filtered at 2 KHz (Axopatch 200B amplifier, Axon Instruments, Union City, Calif.) and digitized at 10 KHz for whole-cell recordings using Axon pCLAMP 10.4. Data were then analyzed using Clampfit 10.4 (Molecular Devices).
# (§2) HEK293 cell culture and transfection: Transfection of HEK293 cells was carried out using Plus reagent (Invitrogen) and Lipofectamine (Invitrogen) according to standard protocols. For heterologous expression of TRP channels in HEK293 cells, 1 μg of TRPC5-GFP, TRPC6-GFP or TRPC4-GFP plasmids were used to transfect HEK293 cells in a 3.5 cm petri dish where cells were allowed to grow to 80% confluence. Electrophysiology was carried out after 16 h incubation.
# TRPC6 = molecular target: T2, TRPC6 (Homo sapiens, UniProt Q9Y210); assay: HEK293 whole-cell patch clamp recording, TRPC6 inhibition assay; format: cell-based; details: 30 μM, HEK cells expressing TRPC6, OAG 30 μM
# T2 construct: expressed in transfected cells; host or cells: HEK293
# T2 sequence (Q9Y210 1-931): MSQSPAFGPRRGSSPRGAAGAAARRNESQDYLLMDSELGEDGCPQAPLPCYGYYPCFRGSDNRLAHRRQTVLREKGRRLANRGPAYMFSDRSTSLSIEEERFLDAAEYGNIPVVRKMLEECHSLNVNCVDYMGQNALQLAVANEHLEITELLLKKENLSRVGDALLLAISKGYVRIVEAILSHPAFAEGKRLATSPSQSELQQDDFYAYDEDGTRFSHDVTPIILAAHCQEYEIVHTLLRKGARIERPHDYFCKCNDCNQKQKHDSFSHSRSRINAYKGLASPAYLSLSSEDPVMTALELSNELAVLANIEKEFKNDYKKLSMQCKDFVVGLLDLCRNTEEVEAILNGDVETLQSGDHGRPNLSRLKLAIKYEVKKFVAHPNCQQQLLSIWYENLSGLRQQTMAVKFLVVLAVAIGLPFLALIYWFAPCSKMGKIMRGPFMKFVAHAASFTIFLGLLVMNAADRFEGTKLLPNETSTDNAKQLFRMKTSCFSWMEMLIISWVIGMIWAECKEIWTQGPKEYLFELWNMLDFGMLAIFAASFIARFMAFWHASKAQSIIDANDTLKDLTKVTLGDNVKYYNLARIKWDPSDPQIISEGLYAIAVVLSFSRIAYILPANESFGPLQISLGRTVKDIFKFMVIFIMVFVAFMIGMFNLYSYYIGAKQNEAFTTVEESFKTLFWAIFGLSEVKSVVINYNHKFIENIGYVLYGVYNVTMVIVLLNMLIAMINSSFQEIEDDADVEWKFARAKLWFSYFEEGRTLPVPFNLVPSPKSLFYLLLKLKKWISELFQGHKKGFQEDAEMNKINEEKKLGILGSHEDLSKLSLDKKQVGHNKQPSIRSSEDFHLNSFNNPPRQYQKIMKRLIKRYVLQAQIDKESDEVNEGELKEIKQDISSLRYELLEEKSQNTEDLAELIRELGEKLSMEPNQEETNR
# Description: as §1, §2
# kinase = assay: standard kinase profiling assays; format: biochemical
structure (smiles),measurement,setting,value
c1ccc(Cn2c(NCc3ccco3)nc3ccccc32)cc1 [AC1903],block of carbachol (CCh)-induced TRPC4 current,TRPC4,failed to block
same,block of OAG-induced TRPC6 current,TRPC6,failed to block
same,off-target effects in kinase profiling,kinase,not found to have any off-target effects
